This note sets out measurements from patent US9572890B2, “Oral formulations of mitochondrially-targeted antioxidants and their preparation and use” (MITOTECH SA, priority 2011, dated 2017).

Some results are limits rather than exact numbers.

Data set [1] can be described thus: Stability in dark plastic or glass vials (light sensitivity). Format: physicochemical. From the text:
Accordingly, one of the ways to further improve or increase stability of SkQ liquid compositions during storage and transportation is to protect it from light.

Data set [2] has as its system human endothelial cells EA.hy926. Put plainly: TNF-α induced death of endothelial cells (MTT test). Format: cell-based. The note with it: 0.2 nM pre-incubation 4 d; TNF-α 0.25 to 50 ng/ml for 2 d. As to the method: Human endothelial cell line EA.hy926 (ATCC Collection; catalog number CRL-2922) was used as a model of vascular endothelium. This cell line is similar to primary HUVEC cell line (Edgell et al. (1983) PNAS, 80(12):3734-7; Edgell et al. (1990) In Vitro Cell Dev Biol., 26(12):1167-72) and widely used as a relevant model for inflammation studies (Riesbeck et al. (1998) Clin. Vaccine Immunol., 5:5675-682).
Accordingly, human endothelial cells EA.hy926 were pre-incubated with 0.2 nM SkQR1 or 2 nM SkQ1 solution in Dulbecco's Modified Eagle's Medium (DMEM) supplemented with 10% of fetal serum (Example 1) for 4 d. After that the cells were incubated overnight with fresh DMEM medium with 0.2% of fetal serum. The cells were incubated 2 d with TNF-α (0.25 ng/ml to 50 ng/ml) and cell death was monitored using standard MTT test (Berridge et al. (1996) Biochemica, 4:14-9). The data from this assay is shown as means±S.E. at least for 3 separate experiments.
A general note: Formazan colour is commonly taken as a measure of viable cells.

The nature of data set [3]: Stability of MTAs in liquid solvents (degradation rate). Format: physicochemical. As to the method: Liquid solvents were also tested for their ability to stabilize representative MTAs SkQ1 and SkQR1. The solvents tested were water solutions of glycerol (10% to 100%), 50% lactulose, and 1,2-propylene glycol (10% to 100%, at 60° C.). Some representative results are shown below (Table 1).

Regarding `CC/N=c1/cc2oc3cc(NCC)c(C)cc3c(-c3ccccc3C(=O)OCCCCCCCCCCC3=CC(=O)C(C)=C(C)C3=O)c-2cc1C` [SkQR1], the stability result in data set [1] is listed as “significantly increased”. For the same compound, the “cell death compared to control without MTA” value in data set [2] is on record as “greatly reduced”. For the same compound, the “Degradation rate, percent per day” value in data set [3] (100 mkM in 10% 1,2-propylene glycol, at 60° C.) is 6.19 percent per day; in data set [3] (100 mkM in 20% 1,2-propylene glycol, at 60° C.), 0.34 percent per day; in data set [3] (100 mkM in 30% 1,2-propylene glycol, at 60° C.) it was 0.32 percent per day; in data set [3] (100 mkM in 40% 1,2-propylene glycol, at 60° C.), 0.06 percent per day; in data set [3] (100 mkM in 50% 1,2-propylene glycol, at 60° C.), below 0.01 percent per day; in data set [3] (100 mkM in 60% 1,2-propylene glycol, at 60° C.), below 0.01 percent per day. The “Degradation rate, percent per day” value is 0.05 percent per day in data set [3] (100 mkM in 70% 1,2-propylene glycol, at 60° C.); 0.23 percent per day in data set [3] (100 mkM in 80% 1,2-propylene glycol, at 60° C.); 0.30 percent per day in data set [3] (100 mkM in 90% 1,2-propylene glycol, at 60° C.); 0.23 percent per day in data set [3] (100 mkM in 100% 1,2-propylene glycol, at 60° C.); 0.7 percent per day in data set [3] (140 mkM in 50% Glycerol).
